# Tested on: Drosophila heart
# Assay: Effects of anesthesia on heart rate
# Format: in vivo, Drosophila melanogaster
# Settings: for effect of anesthesia on heart rate (in words): anesthetized Drosophila
# Source text: […] The flies are removed from the vial as soon as they are immobile.
# A more preferred aspect the microscope is a Nikon Diaphot-TMD inverted microscope, with Nomarski (DIC) optics (without analyzer) and a 10×(N.A. 0.25) objective. Preferably, images are obtained by closing the field diaphragm, so that the light-beam is concentrated on the first ventricle of the fly's heart, and the intensity of the light-beam is increased to the maximum. Most preferably, the flies are positioned on their backs, approximately perpendicular to the light path, and fixed in this position by mounting the spread wings on a glass slide with double-stick tape. Images of the first cardiac ventricle are recorded using a Sony DXC-101 video camera on VHS tape, or using a similar recording apparatus, and the heart rate is measured from slow-motion replays. End-diastolic and end-systolic dimensions are measured on still images at the mid-point between the two major transversal tracheal tubes passing over the first cardiac ventricle. The images can also be analyzed by appropriate image analysis software. In certain aspects of the present invention semi-automated digital image processing is used to measure heart rate and its variation directly from video signals recorded in a single fly or multiple flies. Automated detection allows parameters such as heart rate variability to be detected in a single fly. […] For each fly 2-second video sequences (60 frames each) 10 times consecutively are acquired. […] After applying a low pass filter to reduce noise in the time-space signal, heart rate is estimated by automated counting of the peaks in the signal. […] An average and a standard deviation of the repetitions in the same fly, for example (i.e. about 10 repetitions) are obtained and the coefficient of variation is calculated (Armitage P, Berry G. Statistical Methods in Medical Research. 3rd ed. Oxford: Blackwell Scientific; 1994).
# CO2 the most commonly employed anesthetic for Drosophila.
Structure (SMILES),effect of anesthesia on heart rate (in words),resumption of heart beat after cessation of gas exposure (n=10) [s],"heart rate immediately after anesthesia (older flies, 48 days, n=7, first value) [beats per minute]","heart rate after recovery under the same conditions (older flies, 48 days, n=7, second value) [beats per minute]","heart rate immediately after anesthesia (young flies, 10 days, n=6, first value) [beats per minute]","heart rate after recovery under the same conditions (young flies, 10 days, n=6, second value) [beats per minute]","heart rate immediately after anesthesia (immediately after ether anesthesia, n=5) [beats per minute]","heart rate after 30–40 min when leg movements began to return (same flies after 30–40 min, n=5, p=0.001) [beats per minute]"
O=C=O [CO2],cardiac arrest within a few seconds,20 to 30,,,,,,
CCN(CC)CC [triethylamine],not cause significant changes in heart rate,,213±6,211±11,283±6,282±4,,
CCOCC [Ethyl-ether],depress heart rate,,,,,,120±19,248±11

# Reference: patent publication US7087021B2, “Methods of screening for genes and agents affecting cardiac function” (priority 2001, dated 2006)
